Data published in patent US6559280B2, “Controlling protein levels in eucaryotic organisms” (Proteinix, Inc., priority 1999, dated 2003).
Non-standard residues stand in square brackets, D forms with d. No end group written: not given here. Ahx = NCCCCCC(=O)O

Experiments:
[1] = test system: E2 ubiquitination reaction; details: patent application GB 2,320,570; cited from earlier work
[2] = test system: [125I]-lysozyme degradation in the reticulocyte lysate; assay: inhibition of [125I]-lysozyme degradation in reticulocyte lysate by ubiquitination recognition elements; assay type: biochemical, rabbit; details: for lysozyme degradation, result at the 2 hour time point: no treatment 12,475 cpm
Procedure: Proteins were labeled by Lofstrand Laboratories Ltd. (Gaithersburg, Md.) Labeled to […] by oxidation of Na^125I using an iodobead chloramine-T procedure. The ubiquitin-dependent protein degradation assay was preformed by the addition of 70 μL of rabbit reticulocyte lysate and 5 uL of 0.06 μCi/μL ^25I-labeled protein to […] of reaction buffer containing 40 mM Tris pH 7.6, 2 mM DTT, 5 mM MgCl2, 0.5 mM ATP, 35 μg creatine phosphokinase (Sigma) and 10 mM phosphocreatine. The reaction were run at 37 C. in a heating block, and at time points 30 μL of the reaction was transferred to 50 μl of cold 100 mg/mL BSA and protein was precipitated by the addition of 420 μL of 23% TCA followed by 15 min on ice. The precipitated samples were microfuged for 2 min at 5000 rpm and 300 μL of supernatant was then counted for TCA-soluble ^125I on a gamma counter (Hidex).
In order to determine if a given molecule or molecular element is potentially valuable as a ubiquitination recognition element the assay described above is run with [^125I]-lysozyme or other labeled protein substrates in the presence of potential ubiquitination recognition elements.
The results at the 2 hour time point were 12,475 cpm for no treatment, 6,486 cpm for the 2 mM Arg-εAhx-Cys treatment and 3,592 cpm for the 5 mM Phe-εAhx-Cys treatment.

Molecule | inhibition of an E2 ubiquitination reaction [1] | effect on lysozyme degradation in the reticulocyte lysate [2] | lysozyme degradation, result at the 2 hour time point ([2]; 2 mM treatment) | lysozyme degradation, result at the 2 hour time point ([2]; 5 mM treatment)
O=S(=O)(O)c1cc(Nc2nc(Cl)nc(Nc3ccc(Cl)c(Nc4nc(Cl)nc(Nc5cc(S(=O)(=O)O)cc6cc(S(=O)(=O)O)c(N=Nc7ccc8ccccc8c7S(=O)(=O)O)c(O)c56)n4)c3)n2)c2c(O)c(N=Nc3ccc4ccccc4c3S(=O)(=O)O)c(S(=O)(=O)O)cc2c1 [compound Z, 1-chloro-2,4-bis{4-[2-chloro-6-(5-(2,7-disulfo-4-hydroxy-3-(2-(1-sulfonaphthyl)azo)naphthyl)amino)-1,3,5-triazinyl]amino}benzene] | inhibited an E2 ubiquitination reaction | – | – | –
Arg-εAhx-Cys (Arg-[Ahx]-Cys) [ubiquitination recognition element, Type I recognition with caproic acid linker and C-terminal Cys] | – | inhibition of the lysozyme degradation | 6,486 cpm | –
Phe-εAhx-Cys (Phe-[Ahx]-Cys) [ubiquitination recognition element, Type II recognition with caproic acid linker and C-terminal Cys] | – | inhibition of the lysozyme degradation | – | 3,592 cpm
